Assays:
[1] = test system: γ-globin promoter fragment containing FRE-γ1; assay: Gel mobility shift assay with nuclear extracts of patients' erythroblasts; design: species or system human; conditions: nuclear extracts of thalassemic patients on therapy, 21 and 43 hours after
Protocol: To gain further information on transcription factors binding to FRE elements, gel mobility shift assays with were carried out with promoter fragments containing FRE-γ1. The 3′ half of the DNA sequence of FRE-γ1 is overlapped with that of the stage-selector element (SSE) which has recently been identified in the γ-globin promoter and may be competitively silencing γ-globin gene expression in the fetal stage. Nuclear extracts were purified from a human erythroleukemia cell line, K562, and from erythroblasts that were isolated from peripheral blood or bone marrow of patients. Nuclear extracts used for gel mobility shift assays were prepared as described (Andrews et al., Nucl. Acids Res. 19:2499-2500, 1991). Oligonucleotides, corresponding to the nucleotide sequence from −39 to −78 of the γ-globin promoter (FIG. 13), were annealed to form double-stranded DNA and 5′-labeled with T4 polynucleotide kinase. Prior to addition of a labeled probe, 5 μg of nuclear extracts were mixed with 500 ng of poly(dA-dT) in 20 μl of a binding buffer (25 mM Hepes, pH 7.5, 50 mM KCl, 12.5 mM MgCl2, 1 mM DTT, 10 mM ZnSO4, 5% (v/v) glycerol, 1% (v/v) NP-40) at room temperature for 30 minutes. After addition of a labeled probe of 5×10^6 cpm, the mixture was incubated for 30 minutes at room temperature. […]

[2] = test system: Human mammary carcinoma cells (MCF-7); assay: Human mammary carcinoma cell viability by FACS; assay type: cell-based; conditions: 4 days
Protocol: Human mammary carcinoma cells (MCF-7) were cultured alone (controls) and with arginine butyrate or isobutyramide for 4 days. Viability was assayed by FACS after incubation with a fluorescent dye taken up by viable cells (FIG. 6). Growth was decreased by 50% with isobutyramide at 1.0 mM, about 60% with arginine butyrate at 0.5 mM, and greater than 90% with arginine butyrate at 1.0 mM.

[3] = test system: proximal promoter of the gamma globin gene in K562 cells; assay: Gamma globin promoter-neomycin (NEO) transfection, colony survival in G418; assay type: cell-based, human; conditions: 1 mM, 8 weeks
Protocol: Gamma globin promoter-neomycin transfection experiments were performed to determine if compounds act by inducing an increase in activity from the proximal promoter of the gamma globin gene. Constructs containing 61 by of the proximal gamma globin promoter were linked to the reporter gene for neomycin phosphotransferase (NEO) and transfected into permissive K562 cells by electroporation. After 18 hours, transfected cells were passed at 10^3 cells per well into RPMI media containing G418 (neomycin), which kills all mammalian cells unless the gene for NEO is expressed. Phenoxyacetic acid and thiophenoxyacetic acid were added to some of the cells plated into the RPMI/G418 media at concentrations of 1 mM. Cultures were incubated for 8 weeks with media changes performed as needed. Colonies which survived and grew in the presence of G418 were scored and the number of such colonies was compared to those generated when the cells were plated into G418 media without the test compounds. No colonies in the 24 wells survived in the absence of compounds. There was a greater than 6-fold (>600%) increase in proportions of colonies surviving the presence of phenoxyacetic acid (6/24 wells) and a three-fold (300%) increase in survival in the presence of thiophenoxyacetic acid (3/24 wells).

Row | Structure (SMILES) | protein-DNA binding activity in gel shift [1] | decrease of growth of MCF-7 ([2]; 0.5 mM) | decrease of growth of MCF-7 ([2]; 1.0 mM) | increase in proportions of colonies surviving G418 [3] [%] | wells with surviving colonies ([3]; 0 of 24 wells without compounds) | increase in proportions of colonies surviving G418 ([3]; no colonies without compounds)
1 | CCCC(=O)O [AB, arginine butyrate] | a new binding activity appeared | about 60% | greater than 90% |  |  | 
2 | O=C(O)COc1ccccc1 [PAA, Phenoxyacetic acid] |  |  |  | > 600 | 6/24 | greater than 6 fold
